Assay results reported in patent US5324725A, “7-fused 2-(piperazinoalkyl) indole derivatives, intermediates and compositions thereof” (Kali-Chemie Pharma GmbH, priority 1991, dated 1994).
Where two headings read alike, the source gives them in different places.

Tests used:
histamine (H1) receptor = molecular target: T1, histamine (H1) receptor (Cavia porcellus, UniProt P31389); assay: Antihistamine (H1) effect: inhibition of histamine-induced contractions of isolated guinea-pig ileum in vitro; type: cell-based, guinea-pig (Dunkin Hartley); conditions: histamine 5 × 10^-6 mol/l, test substance 10^-6 mol/l
T1 construct: isolated smooth muscle of the guinea-pig ileum; from tissue; host or cells: isolated ileum segments of Dunkin Hartley guinea-pigs
Method: 3. Investigation of the antihistamine (H1) effect based on histamine (H1) receptor antagonism in vitro.
To investigate the histamine (H1) receptor antagonism of the substances, the inhibitory effect thereof on histamine-induced contractions of the smooth musculature of isolated organ was determined in vitro. Isolated strips of organ from the ileum were used. In an organ bath of physiological saline solution, they react to addition of histamine by contracting. Addition of the compounds of the invention decreases this histamine-induced contraction of the smooth musculature of the ileum strips. The extent of decrease of the contraction is an indication of the antihistamine (H1) activity of the compounds. The investigation is carried out analogously to the method originally described by Magnus (Pflugers Arch. 102, 123 (1904)).
Experimental description of the determination of the inhibitory effect on the contraction induced by a 5×10^-6 molar histamine concentration on isolated smooth muscle of the guinea-pig ileum.
For the test, 1.5 cm long segments of the ileum from Dunkin Hartley guinea-pigs having a body weight of 300-500 g were employed. Each strip was placed in an organ bath of 10 ml of Krebs-Henseleit physiological saline solution and attached to a customary apparatus for isotonically measuring changes in length of the ileum strip (automated Celaster measuring apparatus) so that the tissue is under a tension of 1 g. The bath was kept at a pH of 7.4 and aerated with a mixture of 5% CO2 and 95% O2. After an equilibration phase, an isotonic contraction of the tissue was produced by adding histamine in a final concentration of 5×10^-6 mol/l and was washed out again after a contact time of 30 seconds. Only those tissues in which three reproducible contractions were obtained at 10 minute intervals were used in the subsequent test. The test substances were then added in a final concentration of 10^-6 mol/l, and after a contact time of 30 seconds histamine was again added up to a concentration of 5×10^-6 mol/l. The contractions which occurred were measured over the course of 30 seconds. The tissue was then washed several times over a period of 10 minutes. A contraction challenge was then induced again by addition of histamine. The contractions which occurred were again measured over 30 seconds. The difference between the amplitude of the contraction obtained by histamine addition alone and the amplitude of the contraction obtained in the presence of the test substance was determined and calculated as % inhibition.
The inhibitory effects on the contractions induced by histamine 30 seconds after administration of the test substance and on the contractions induced by addition of histamine 10 minutes afterward are given in the table.

[1] = system: P.A.F.-induced aggregation of platelets from rabbit blood; assay: Anti-P.A.F. effect in vitro: inhibition of P.A.F.-induced platelet aggregation; type: cell-based, rabbit (New Zealand hybrids); conditions: test substance concentration 10^-5 mol/l; for inhibition at 10 µM: Oryctolagus cuniculus, Platelet
Excerpt: 4. Determination of anti-P.A.F. effect in vitro.
Platelet-activating factor (P.A.F.) is a phospholipid mediator which has several effects. The activation of platelet aggregation leads to the induction of protracted broncho contractions and hyperreactivity of the airways.
The effects of the test substances on platelet aggregation induced by adding P.A.F. to a platelet suspension obtained from rabbit blood was investigated by the method described by Mikashima et al. (Jap. J. Pharmacol. 44 (1987) 387-391).
A suspension of platelets originating from rabbit blood was used which contained 4×10^9 platelets/ml in a modified Tyrode buffer solution adjusted to pH 7.4. Tyrode solution is an aqueous solution containing 136.9 mmol of NaCl, 2.68 mmol of KCl, 2.31 mmol of CaCl2, 1.0 mmol of MgCl2, 11.9 mmol of NaHCO3, 1.45 mmol of NaH2 PO4 and 5.55 mmol of glucose per liter. This solution was modified by adding 1.3 mM/l of CaCl2 and 2.5 g/l of gelatin. The platelets were obtained from 10 ml blood samples from each of three rabbits (New Zealand hybrids, body weight 3-4 kg). For this, the blood samples were treated with ethylenediaminetetraacetic acid and washed by the method of Artley et al. (Brit. J. Hamatol. 19 (1970), 7-17). A platelet-rich plasma was then initially separated by centrifugation (20 minutes at 400×g). The platelets were separated from the plasma by centrifuging again for 15 minutes at 1400×g. After centrifuging, the platelets remaining as a sediment were resuspended in a calcium-free Tyrode buffer solution. 0.4 mmol of lysine acetylsalicylate were then added and after 15 minutes the blood platelets were sedimented again. The sediment was resuspended in the abovementioned modified Tyrode buffer solution, and the number of platelets in the resulting suspension was adjusted to the desired content.
A 40×10^-9 molar P.A.F. solution was used as the reagent. This solution was prepared from a 1.8×10^-3 molar stock solution in chloroform. For this, a 10μl sample of the stock solution was evaporated to dryness and redissolved in 180 μl of the modified Tyrode solution, to which 0.25% of dilapidated bovine serum albumin had been added. 10^-5 molar working solutions were then prepared from this and stored frozen. Samples of these solutions were appropriately diluted for the tests.
To carry out the tests, 50 μl of the platelet solution and 10 μl of a 40×10^-5 molar solution of the compound to be investigated were added to 330 μl of the modified Tyrode buffer solution with stirring (1000 rpm) in an aggregation tube provided with a small magnetic stirrer. This corresponds to a final test substance concentration of 10^-5 mol/l. After a preincubation time of 90seconds, 10 μl of the P.A.F. preparation were added. The aggregation occurring in the aggregation tubes was measured for 4-5 minutes using a computerized aggregometer.
The aggregation occurring in the test tubes containing only platelet suspension was rated as 0%. The aggregation occurring in test tubes containing platelet suspension and P.A.F. preparation was rated as 100%. The aggregation which still occurred in the presence of the test substances (i.e. during inhibition of the P.A.F.-induced platelet aggregation increase) was measured, and the resulting aggregation inhibition is calculated from this in %.

[2] = system: Passive cutaneous anaphylaxis (P.C.A.); assay: Inhibition of passive cutaneous anaphylaxis (P.C.A.); type: in vivo, rat (Sprague-Dawley); conditions: Rattus norvegicus, 1 h; rats, 2 × 10^-5 mol/kg p.o., one hour before ovalbumin challenge
Method: (§1) 1. Determination of the inhibition of passive cutaneous anaphylaxis (P.C.A.) and of the anaphylactoid cutaneous reaction induced by histamine.
The P.C.A. reaction was carried out according to the methods described by Goose et al. (J.N. Immunology 16 (1969), 749) and by Martin et al (Arch. Pharmacol. 316 (1981), 186}.
The IgE-rich ovalbumin antiserum used in the test was obtained from immunized Brown-Norway rats. For immunization, the rats were given an i.p. injection of a mixture of 100 μg of ovalbumin with a Bordetella pertussis suspension (Vaxicoq®, Manufacturer: Institut Merieux, containing 5×10^9 organisms and 1.25 mg of Al(OH)3). After 20 days, the animals received a further i.p. injection of a solution of 10 μg of ovaIbumin in 0.5 ml of physiological saline solution for reimmunisation. After a further four days, the animals were bled, and the blood was centrifuged The antiserum obtained in this way was stored at -20° C. until use.
(§2) The determination of the inhibition of passive cutaneous anaphylaxis and the anaphylactoid cutaneous reaction induced by histamine was carried out as follows:
Sprague-Dawley rats having a body weight of 150-180 g were injected intradermally in one flank with 50 μl of a 1:75 dilution of the IgE-rich ovalbumin antiserum in physiological sodium chloride solution for passive sensitization to ovalbumin.
24 hours after sensitization a solution of 8.25 mg/kg of ovalbumin and 26.4 mg/kg of a blue dye (Evans' Blue) was administered i.v. to the rats according to Martin et al. to induce passive cutaneous anaphylaxis. The ovalbumin challenge caused a local anaphylactic reaction at the site at which the antiserum had been injected.
(§3) On the test days, the test substances were dissolved in distilled water which contained 1% by volume of dimethylformamide and 1% by volume of Tween®20 (polyoxyethylene(20) sorbitan monolaurate). One hour before the challenging ovalbumin administration, each animal received 2×10^-5 mol/kg of test substance administered orally in 0.5 ml of solution. A control group received only the solvent for comparison.
(§4) The oedematous anaphylactic (P.C.A.) and anaphylactoid (histamine-induced) reactions caused by the challenging i.v. ovalbumin injection, which are manifested by oedema formation, swelling and exudation of blue dye, were evaluated 30 minutes after challenge by the i.v. ovalbumin injection. This was done by visual determination of the extent to which the blue dye emerges at the sites of oedema formation. The percentage inhibition of anaphylactic and anaphylactoid reactions caused by the test substances was determined in comparison with the reactions of the control animals not treated with test substance with the aid of comparison scales.
(§5) The results obtained by the above test methods using compounds of the formula I are shown in the following Table A. The example numbers given for the compounds of formula I relate to the following preparation examples.

[3] = system: Histamine-induced anaphylactoid reactions; assay: Inhibition of anaphylactoid cutaneous reaction induced by histamine; type: in vivo, rat (Sprague-Dawley); conditions: Rattus norvegicus, 1 h; rats, 2 × 10^-5 mol/kg p.o., one hour before challenge; histamine intradermal
Method: as §1, §2
To determine the histamine-induced anaphylactoid skin reaction, the animals were injected intradermally in the flank opposite to the antiserum administration with 50 μl of a physiological saline solution containing 0.8 mg/ml of histamine directly before the i.v. injection of the solution containing the ovalbumin and the blue dye.
as §3, §4, §5

[4] = after 30 sec., read-out: in vitro (H1) receptor antagonism % inhibitory effect on histamine-induced contractions of the Ileum, after 30 sec.
[5] = after 10 min. (after washing), read-out: in vitro (H1) receptor antagonism % inhibitory effect on histamine-induced contractions of the Ileum, after 10 min.

T1 sequence (P31389 whole entry): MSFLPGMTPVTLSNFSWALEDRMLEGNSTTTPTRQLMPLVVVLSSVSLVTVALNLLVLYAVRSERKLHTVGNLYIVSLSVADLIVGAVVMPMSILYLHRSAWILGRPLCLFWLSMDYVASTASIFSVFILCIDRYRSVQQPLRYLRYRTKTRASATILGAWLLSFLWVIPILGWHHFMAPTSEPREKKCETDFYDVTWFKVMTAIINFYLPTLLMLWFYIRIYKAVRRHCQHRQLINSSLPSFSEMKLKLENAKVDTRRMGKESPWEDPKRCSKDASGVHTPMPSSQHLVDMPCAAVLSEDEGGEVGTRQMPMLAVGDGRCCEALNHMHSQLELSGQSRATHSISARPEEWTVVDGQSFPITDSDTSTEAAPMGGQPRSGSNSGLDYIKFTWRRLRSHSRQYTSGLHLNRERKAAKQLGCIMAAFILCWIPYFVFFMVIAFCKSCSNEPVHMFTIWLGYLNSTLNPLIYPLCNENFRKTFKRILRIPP

Row | Compound | inhibition at 1 µM (histamine (H1) receptor; [4]) [%] | inhibition at 1 µM (histamine (H1) receptor; [5]) [%] | inhibition in vivo at 20 µmol/kg [2] [%] | inhibition in vivo at 20 µmol/kg [3] [%] | inhibition at 10 µM [1] [%] | other results
1 | Cc1ccc(N2CCN(CCc3c(C)n4c5c(cc(C(=O)C(C)C)cc35)CCC4)CC2)nc1 [Example 95] | 10 | 71 |  |  |  | 
2 | Cc1ccnc(N2CCN(CCc3c(-c4ccc(O)cc4)n4c5c(cccc35)CCC4)CC2)c1 [Example 97] |  |  |  |  |  | % inhibition of the P.A.F.-induced aggregation of platelets from rabbit blood [1]: 99%
3 | Cc1ccnc(N2CCN(CCCc3c(C)n4c5c(cccc35)CCC4)CC2)c1 [Example 17, 5,6-dihydro-2-methyl-1-{3-[4-(4-methylpyridin-2-yl)piperazin-1-yl]-propyl}-4H-pyrrolo[3,2,1-ij]quinoline] |  |  | 45 | 25 |  | 
4 | COc1ccc(-c2c(CCN3CCN(c4cc(C)ccn4)CC3)c3cccc4c3n2CCC4)cc1 [Example 96] |  |  |  |  |  | % inhibition of the P.A.F.-induced aggregation of platelets from rabbit blood [1]: 98%
5 | Cc1ccc(-c2c(CCN3CCN(c4cc(C)ccn4)CC3)c3cccc4c3n2CCC4)cc1 [Example 86] |  |  |  |  | 100 | 
6 | CNc1cc2c3c(c1)c(CCN1CCN(c4cc(C)ccn4)CC1)c(C)n3CCC2 [Example 29, 5,6-Dihydro-2-methyl-8-methylamino-1-{2-[4-(4-methylpyridin-2-yl)piperazin-1-yl]ethyl}-4H-pyrrolo[3,2,1-ij]quinoline] |  |  |  |  |  | in vitro (H1) receptor antagonism % inhibitory effect on histamine-induced contractions of the Ileum, after 30 sec. (histamine (H1) receptor; after 30 sec.): 7%; in vitro (H1) receptor antagonism % inhibitory effect on histamine-induced contractions of the Ileum, after 10 min. (histamine (H1) receptor; after 10 min. (after washing)): 30%
7 | Cc1ccnc(N2CCN(CCc3c(Cc4ccccc4)n4c5c(cccc35)CCC4)CC2)c1 [Example 32, 2-Benzyl-5,6-dihydro-1-{2-[4-(4-methylpyridin-2-yl)-piperazin-1-yl]ethyl}-4H-pyrrolo[3,2,1-ij]quinoline] |  |  |  |  | 100 | 

Continued, in another order:

Row | inhibition at 1 µM (histamine (H1) receptor; [4]) [%] | inhibition at 1 µM (histamine (H1) receptor; [5]) [%] | Compound | inhibition in vivo at 20 µmol/kg [2] [%] | inhibition in vivo at 20 µmol/kg [3] [%] | inhibition at 10 µM [1] [%] | other results
8 | 31 | 89 | Cc1ccnc(N2CCN(CCc3c(C)n4c5c(cccc35)CCCC4)CC2)c1 [Example 31, 4,5,6,7-tetrahydro-2-methyl-1-{2-[4-(4-methylpyridin-2-yl)piperazin-1-yl]ethyl}-pyrrolo[3,2,1-jk]benzazepine] |  |  | 95 | 
9 | 6 | 14 | Cc1ccnc(N2CCN(CCc3c(C)n4c5c(cccc35)S(=O)(=O)CC4)CC2)c1 [Example 28b, 2,3-dihydro-5-methyl-6-{2-[4-(4-methylpyridin-2-yl)-piperazin-1yl]ethyl}-pyrrolo[1,2,3-de]-1,4-benzothiazine-1,1-dioxide] | 100 | 85 |  | 
10 | 25 | 24 | Cc1ccnc(N2CCN(CCc3c(C)n4c5c(cccc35)[S+]([O-])CC4)CC2)c1 (centres unmarked) [Example 28a, 2,3-Dihydro-5-methyl-6-{2-[4-(4-methylpyridin-2-yl)-piperazin-1-yl]ethyl}-pyrrolo[1,2,3-de]-1,4-benzothiazine-1-oxide] | 100 | 90 |  | 
11 | 29 | 72 | Cc1ccnc(N2CCN(CCc3c(C)n4c5c(cccc35)CCC4CO)CC2)c1 (centres unmarked) [Example 18, 5,6-Dihydro-4-hydroxymethyl-2-methyl-1-{2-[4-(4-methylpyridin-2-yl)piperazin-1-yl]ethyl}-4H-pyrrolo[3,2,1-ij]-quinoline] | 90 | 80 |  | 
12 | 35 | 48 | COc1cccc(N2CCN(CCc3c(C)n4c5c(cccc35)CCC4)CC2)c1 [Example 48] | 25 | 35 |  | 
13 | 12 | 92 | CSc1cc2c3c(c1)c(CCN1CCN(c4cc(C)ccn4)CC1)c(C)n3CCS2 [Example 78] |  |  | 98 | 
